Counter-ions that a name gives are not always drawn.
These compounds were tested on HeLa cells (assay: cells). Conditions: not given.
How it was run: (§1)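 Viability by Alamar Blue (5 h) after ~65 h drug treatment; seeding density 2 × 10^4 cells/well in DMEM supplemented with 10% FCS and 2 mM L-Glutamine.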

| Structure (SMILES) | HeLa Cells Alamar Blue |
| --- | --- |
| Cl.Cl.NCCc1c[nH]cn1 [compound 475, 2‐(1H‐imidazol‐4‐yl)ethylamine dihydrochloride] | 95.9 ± 6.6 |

Same assay, conditions: Homo sapiens, HeLa, 65 h, read-out: HeLa Cells Alamar Blue

| Structure (SMILES) | viability at 500 µM [%] |
| --- | --- |
| Nc1nsc(-c2ccccc2)n1 [compound 424, 5‐phenyl‐1,2,4‐thiadiazol‐3‐amine] | 62.2 ± 15.4 |
| CCCc1ccc(NC(C)=O)cc1 [compound 426, N1‐(4‐propylphenyl)acetamide] | 89.8 ± 10.8 |
| Nc1ccccc1N1CCNCC1 [compound 429, 2‐piperazin‐1‐ylaniline] | 78.5 ± 7.7 |
| O=C(O)C1COc2ccccc2C1 (stereo not drawn) [compound 431, 3‐chromanecarboxylic acid] | 102 ± 5.9 |
| O=C(O)c1csc2ccccc12 [compound 432, 1‐benzothiophene‐3‐carboxylic acid] | 88.5 ± 12.2 |
| Nc1ccc(N2CCOCC2)cc1 [compound 435, 4‐morpholinoaniline] | 10.2 ± 6.9 |
| Nc1ccccc1N1CCOCC1 [compound 436, 2‐morpholinoaniline] | 79.1 ± 5.8 |
| OCc1ccc(N2CCCC2)nc1 [compound 437, [6‐(1‐pyrrolidinyl)‐3‐pyridinyl]methanol] | 9.3 ± 4.8 |
| OCc1ccnc(N2CCCC2)c1 [compound 438, (2‐pyrrolidin‐1‐ylpyrid‐4‐yl)methanol] | 103 ± 14.9 |
| CC(C)(C)C(=O)Nc1ccncc1 [compound 439, 2,2‐dimethyl‐N‐(4‐pyridinyl)propanamide] | 54.6 ± 4.5 |
| Cc1ccc2sc(CO)cc2c1 [compound 442, 5‐Methylbenzo[b]thiophene‐2‐methanol] | 71.3 ± 3.5 |
| CCN(CC)CCc1ccccn1 [compound 443, N,N‐diethyl‐N‐[2‐(2‐pyridyl)ethyl]amine] | 90.9 ± 9.8 |
| CCOC(=O)Cc1ccc(N)cc1 [compound 446, ethyl 2‐(4‐aminophenyl)acetate] | 80.1 ± 14.8 |
| Oc1cccc(N2CCOCC2)c1 [compound 447, 3‐morpholinophenol] | 77.8 ± 11.8 |
| Oc1ccccc1N1CCOCC1 [compound 448, 2‐morpholinophenol] | 93.3 ± 6.7 |
| COC(=O)Cc1cccc(OC)c1 [compound 451, methyl 2‐(3‐methoxyphenyl)acetate] | 101 ± 9.6 |
| COc1ccccc1CCC(=O)O [compound 452, 3‐(2‐methoxyphenyl)propanoic acid] | 97.3 ± 7.2 |

| Structure (SMILES) | viability at 500 µM [%] |
| --- | --- |
| N#Cc1ccc(-c2ccccc2)nc1 [compound 456, 6‐phenylnicotinonitrile] | 33.9 ± 6.9 |
| Fc1ccc(N2CCNCC2)cc1 [compound 457, 1‐(4‐fluorophenyl)piperazine] | 12.7 ± 10.1 |
| OCc1cc(-c2cccs2)[nH]n1 [compound 459, (5‐thien‐2‐yl‐1H‐pyrazol‐3‐yl)methanol] | 27.8 ± 10.9 |
| OCc1cc(-c2cccs2)on1 [compound 462, [5‐(2‐thienyl)‐3‐isoxazolyl]methanol] | 75.6 ± 5.9 |
| O=C(O)CSCc1ccccc1 [compound 465, 2‐(benzylthio)acetic acid] | 99 ± 9.3 |
| COC(=O)CSc1ccccc1 [compound 466, methyl 2‐(phenylthio)acetate] | 102 ± 4.8 |
| O=C(C1CCCNC1)N1CCCC1 (stereo not drawn) [compound 468, 3‐piperidinyl(1‐pyrrolidinyl)methanone] | 110 ± 13.3 |
| O=C(C1CCNCC1)N1CCCC1 [compound 469, 4‐piperidinyl(1‐pyrrolidinyl)methanone] | 99.5 ± 8.7 |
| NC(=S)CSc1ccccc1 [compound 472, 2‐(phenylthio)ethanethioamide] | 76.5 ± 11.2 |
| CC(=O)Nc1ccc(Cl)cc1C [compound 473, 4‐chloro‐2‐methylacetanilide] | 109 ± 11.9 |
| O=C1CSC(c2cccs2)C1 (stereo not drawn) [compound 482, 5‐(2‐thienyl)tetrahydrothiophen‐3‐one] | 116 ± 6.7 |
| OCc1ccc(-c2ccncc2)cc1 [compound 488, (4‐pyrid‐4‐ylphenyl)methanol] | 65.5 ± 17.5 |
| OCc1ccc(-c2cccnc2)cc1 [compound 489, (4‐pyrid‐3‐ylphenyl)methanol] | 66.4 ± 18.8 |
| OCc1ccc(-c2ccccn2)cc1 [compound 490, (4‐pyrid‐2‐ylphenyl)methanol] | 102 ± 13.5 |
| OCc1cccc(-c2ccncc2)c1 [compound 491, (3‐pyrid‐4‐ylphenyl)methanol] | 34.4 ± 13.8 |
| OCc1ccc(-c2ccccc2)nc1 [compound 492, (6‐phenyl‐3‐pyridinyl)methanol] | 78.6 ± 15.6 |

Same assay, conditions: Homo sapiens, HeLa, 65 h, read-out: HeLa Cells Alamar Blue, Supplementary Table 1; compound 0.5 mM; percentage of controls; mean ± SD (n=3) or SE (n=2)

| Structure (SMILES) | viability at 500 µM [%] |
| --- | --- |
| Nc1cccc(N)c1 [compound 461, benzene‐1,3‐diamine dihydrochloride] | 106 ± 10.7 |

Same assay, conditions: Supplementary Table 1; compound 0.5 mM; percentage of controls; mean ± SD (n=3) or SE (n=2)

| Structure (SMILES) | HeLa Cells Alamar Blue |
| --- | --- |
| CC1(C)Cc2cccc(CO)c2O1 [compound 434, (2,2‐dimethyl‐2,3‐dihydro‐1‐benzofuran‐7‐yl)methanol] | 80.2 ± 12 percentage of controls |
| OCc1ccc2c(c1)OCCCO2 [compound 453, 3,4‐dihydro‐2H‐1,5‐benzodioxepin‐7‐ylmethanol] | 86.6 ± 3.2 percentage of controls |
| COC(=O)c1cc2ccsc2[nH]1 [compound 463, methyl 6H‐thieno[2,3‐b]pyrrole‐5‐carboxylate] | 101.3 ± 11 percentage of controls |
| Cn1c(C(=O)O)cc2sccc21 [compound 464, 4‐methyl‐4H‐thieno[3,2‐b]pyrrole‐5‐carboxylic acid] | 93.5 ± 4.2 percentage of controls |
| CNCc1scc2c1OCCO2 [compound 495, N‐(2,3‐dihydrothieno[3,4‐b][1,4]dioxin‐5‐ylmethyl)‐N‐methylamine] | 43.6 ± 17.7 percentage of controls |
| Cc1cc(N)ccc1C(C)C.Cl [compound 497, 4‐isopropyl‐3‐methylaniline hydrochloride] | 90.1 ± 2.1 percentage of controls |
| Cc1cc(C(F)(F)F)c(C#N)cn1 [compound 498, 6‐methyl‐4‐(trifluoromethyl)nicotinonitrile] | 102.9 ± 18.5 percentage of controls |

What follows are compounds tested on A549 cells (assay: Cytotoxicity against A549 cells, Alamar Blue). Conditions: not given.
Format: cell-based
How it was run: as §1

| Structure (SMILES) | A549 Cells Alamar Blue |
| --- | --- |
| Cl.Cl.NCCc1c[nH]cn1 [compound 475, 2‐(1H‐imidazol‐4‐yl)ethylamine dihydrochloride] | 80.3 |

Same assay, conditions: Homo sapiens, A549, 65 h; Supplementary Table 1; compound 0.5 mM; percentage of controls (n=1)

| Structure (SMILES) | viability at 500 µM [%] |
| --- | --- |
| Nc1nsc(-c2ccccc2)n1 [compound 424, 5‐phenyl‐1,2,4‐thiadiazol‐3‐amine] | 60.1 |
| CCCc1ccc(NC(C)=O)cc1 [compound 426, N1‐(4‐propylphenyl)acetamide] | 71.7 |
| Nc1ccccc1N1CCNCC1 [compound 429, 2‐piperazin‐1‐ylaniline] | 54.3 |
| O=C(O)C1COc2ccccc2C1 (stereo not drawn) [compound 431, 3‐chromanecarboxylic acid] | 95.8 |
| O=C(O)c1csc2ccccc12 [compound 432, 1‐benzothiophene‐3‐carboxylic acid] | 55.1 |
| Nc1ccc(N2CCOCC2)cc1 [compound 435, 4‐morpholinoaniline] | 33.5 |
| Nc1ccccc1N1CCOCC1 [compound 436, 2‐morpholinoaniline] | 56.4 |
| OCc1ccc(N2CCCC2)nc1 [compound 437, [6‐(1‐pyrrolidinyl)‐3‐pyridinyl]methanol] | 44.3 |
| OCc1ccnc(N2CCCC2)c1 [compound 438, (2‐pyrrolidin‐1‐ylpyrid‐4‐yl)methanol] | 71.9 |
| CC(C)(C)C(=O)Nc1ccncc1 [compound 439, 2,2‐dimethyl‐N‐(4‐pyridinyl)propanamide] | 65 |
| Cc1ccc2sc(CO)cc2c1 [compound 442, 5‐Methylbenzo[b]thiophene‐2‐methanol] | 53.7 |
| CCN(CC)CCc1ccccn1 [compound 443, N,N‐diethyl‐N‐[2‐(2‐pyridyl)ethyl]amine] | 49.2 |
| CCOC(=O)Cc1ccc(N)cc1 [compound 446, ethyl 2‐(4‐aminophenyl)acetate] | 63.2 |
| Oc1cccc(N2CCOCC2)c1 [compound 447, 3‐morpholinophenol] | 62.8 |
| Oc1ccccc1N1CCOCC1 [compound 448, 2‐morpholinophenol] | 71.1 |
| COC(=O)Cc1cccc(OC)c1 [compound 451, methyl 2‐(3‐methoxyphenyl)acetate] | 93.2 |
| COc1ccccc1CCC(=O)O [compound 452, 3‐(2‐methoxyphenyl)propanoic acid] | 61.6 |

| Structure (SMILES) | viability at 500 µM [%] |
| --- | --- |
| N#Cc1ccc(-c2ccccc2)nc1 [compound 456, 6‐phenylnicotinonitrile] | 67.1 |
| Fc1ccc(N2CCNCC2)cc1 [compound 457, 1‐(4‐fluorophenyl)piperazine] | 74.7 |
| OCc1cc(-c2cccs2)[nH]n1 [compound 459, (5‐thien‐2‐yl‐1H‐pyrazol‐3‐yl)methanol] | 85 |
| Nc1cccc(N)c1 [compound 461, benzene‐1,3‐diamine dihydrochloride] | 91.8 |
| OCc1cc(-c2cccs2)on1 [compound 462, [5‐(2‐thienyl)‐3‐isoxazolyl]methanol] | 76.2 |
| O=C(O)CSCc1ccccc1 [compound 465, 2‐(benzylthio)acetic acid] | 67.9 |
| COC(=O)CSc1ccccc1 [compound 466, methyl 2‐(phenylthio)acetate] | 84.7 |
| O=C(C1CCCNC1)N1CCCC1 (stereo not drawn) [compound 468, 3‐piperidinyl(1‐pyrrolidinyl)methanone] | 80.7 |
| O=C(C1CCNCC1)N1CCCC1 [compound 469, 4‐piperidinyl(1‐pyrrolidinyl)methanone] | 86.1 |
| NC(=S)CSc1ccccc1 [compound 472, 2‐(phenylthio)ethanethioamide] | 86 |
| CC(=O)Nc1ccc(Cl)cc1C [compound 473, 4‐chloro‐2‐methylacetanilide] | 76.1 |
| O=C1CSC(c2cccs2)C1 (stereo not drawn) [compound 482, 5‐(2‐thienyl)tetrahydrothiophen‐3‐one] | 112 |
| OCc1ccc(-c2ccncc2)cc1 [compound 488, (4‐pyrid‐4‐ylphenyl)methanol] | 133 |
| OCc1ccc(-c2cccnc2)cc1 [compound 489, (4‐pyrid‐3‐ylphenyl)methanol] | 131 |
| OCc1ccc(-c2ccccn2)cc1 [compound 490, (4‐pyrid‐2‐ylphenyl)methanol] | 118 |
| OCc1cccc(-c2ccncc2)c1 [compound 491, (3‐pyrid‐4‐ylphenyl)methanol] | 66.8 |
| OCc1ccc(-c2ccccc2)nc1 [compound 492, (6‐phenyl‐3‐pyridinyl)methanol] | 81.3 |

Same assay, conditions: Supplementary Table 1; compound 0.5 mM; percentage of controls (n=1)

| Structure (SMILES) | A549 Cells Alamar Blue |
| --- | --- |
| CC1(C)Cc2cccc(CO)c2O1 [compound 434, (2,2‐dimethyl‐2,3‐dihydro‐1‐benzofuran‐7‐yl)methanol] | 51.1 percentage of controls |
| OCc1ccc2c(c1)OCCCO2 [compound 453, 3,4‐dihydro‐2H‐1,5‐benzodioxepin‐7‐ylmethanol] | 51.6 percentage of controls |
| COC(=O)c1cc2ccsc2[nH]1 [compound 463, methyl 6H‐thieno[2,3‐b]pyrrole‐5‐carboxylate] | 59.7 percentage of controls |
| Cn1c(C(=O)O)cc2sccc21 [compound 464, 4‐methyl‐4H‐thieno[3,2‐b]pyrrole‐5‐carboxylic acid] | 89.4 percentage of controls |
| CNCc1scc2c1OCCO2 [compound 495, N‐(2,3‐dihydrothieno[3,4‐b][1,4]dioxin‐5‐ylmethyl)‐N‐methylamine] | 96.9 percentage of controls |
| Cc1cc(N)ccc1C(C)C.Cl [compound 497, 4‐isopropyl‐3‐methylaniline hydrochloride] | 115.7 percentage of controls |
| Cc1cc(C(F)(F)F)c(C#N)cn1 [compound 498, 6‐methyl‐4‐(trifluoromethyl)nicotinonitrile] | 107.7 percentage of controls |
